# Results reported in ChEMBL document CHEMBL3991601, “The target landscape of clinical kinase drugs” (Science, 2017).
# Active and inactive are the calls of the source.
# Assays:
# [1] = target: T1, Glycogen phosphorylase, brain form (Homo sapiens, UniProt P11216)
# T1 sequence (P11216 whole entry): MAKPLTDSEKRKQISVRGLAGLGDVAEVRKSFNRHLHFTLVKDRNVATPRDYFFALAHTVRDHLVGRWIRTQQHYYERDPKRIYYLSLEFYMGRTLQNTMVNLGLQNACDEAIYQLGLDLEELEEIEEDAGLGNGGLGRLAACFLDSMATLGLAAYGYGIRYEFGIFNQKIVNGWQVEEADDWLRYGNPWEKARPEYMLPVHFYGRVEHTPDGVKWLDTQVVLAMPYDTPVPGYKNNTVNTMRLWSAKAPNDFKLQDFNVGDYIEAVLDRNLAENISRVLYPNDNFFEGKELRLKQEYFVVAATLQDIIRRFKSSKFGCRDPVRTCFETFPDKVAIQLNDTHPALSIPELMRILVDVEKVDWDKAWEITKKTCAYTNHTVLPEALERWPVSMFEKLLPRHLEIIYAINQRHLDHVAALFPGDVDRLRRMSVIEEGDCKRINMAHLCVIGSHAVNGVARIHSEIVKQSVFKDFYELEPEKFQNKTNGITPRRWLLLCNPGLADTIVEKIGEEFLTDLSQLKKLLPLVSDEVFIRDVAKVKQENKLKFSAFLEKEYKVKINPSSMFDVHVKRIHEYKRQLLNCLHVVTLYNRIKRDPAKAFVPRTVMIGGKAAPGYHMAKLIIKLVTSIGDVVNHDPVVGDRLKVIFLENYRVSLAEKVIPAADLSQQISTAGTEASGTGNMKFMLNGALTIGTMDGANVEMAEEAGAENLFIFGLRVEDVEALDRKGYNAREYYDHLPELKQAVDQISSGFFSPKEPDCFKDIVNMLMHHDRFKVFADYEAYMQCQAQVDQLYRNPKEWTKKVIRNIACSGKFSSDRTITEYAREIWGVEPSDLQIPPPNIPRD
# [2] = target: Serine/threonine-protein kinase PAK 4 (Homo sapiens, UniProt O96013)
# Chain of Serine/threonine-protein kinase PAK 4 (O96013 whole entry): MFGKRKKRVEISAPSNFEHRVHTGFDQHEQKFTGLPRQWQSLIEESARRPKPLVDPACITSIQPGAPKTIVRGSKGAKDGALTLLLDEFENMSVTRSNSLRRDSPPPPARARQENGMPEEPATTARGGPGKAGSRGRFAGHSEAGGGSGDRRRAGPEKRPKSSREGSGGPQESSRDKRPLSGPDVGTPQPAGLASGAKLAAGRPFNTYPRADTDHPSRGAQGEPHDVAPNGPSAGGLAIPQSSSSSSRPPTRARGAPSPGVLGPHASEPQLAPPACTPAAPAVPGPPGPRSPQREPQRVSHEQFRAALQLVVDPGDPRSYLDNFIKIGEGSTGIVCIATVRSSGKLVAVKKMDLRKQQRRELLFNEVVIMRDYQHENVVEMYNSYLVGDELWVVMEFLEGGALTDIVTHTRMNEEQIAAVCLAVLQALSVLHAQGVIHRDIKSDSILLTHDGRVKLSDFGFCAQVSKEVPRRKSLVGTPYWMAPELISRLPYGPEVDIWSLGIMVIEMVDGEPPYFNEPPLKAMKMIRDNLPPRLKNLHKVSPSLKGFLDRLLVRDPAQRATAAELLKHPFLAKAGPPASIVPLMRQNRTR
# [3] = target: T2, Ras-related protein Rab-27A (Homo sapiens, UniProt P51159)
# T2 sequence (P51159 whole entry): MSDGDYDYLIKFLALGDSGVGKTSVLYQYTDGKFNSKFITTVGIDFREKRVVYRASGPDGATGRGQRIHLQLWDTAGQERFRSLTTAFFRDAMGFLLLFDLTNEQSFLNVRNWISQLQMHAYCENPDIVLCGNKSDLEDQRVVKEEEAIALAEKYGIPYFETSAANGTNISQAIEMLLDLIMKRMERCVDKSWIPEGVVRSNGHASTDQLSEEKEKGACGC
# [4] = target: Mitogen-activated protein kinase 7 (Homo sapiens, UniProt Q13164)
# Chain of Mitogen-activated protein kinase 7 (Q13164 whole entry): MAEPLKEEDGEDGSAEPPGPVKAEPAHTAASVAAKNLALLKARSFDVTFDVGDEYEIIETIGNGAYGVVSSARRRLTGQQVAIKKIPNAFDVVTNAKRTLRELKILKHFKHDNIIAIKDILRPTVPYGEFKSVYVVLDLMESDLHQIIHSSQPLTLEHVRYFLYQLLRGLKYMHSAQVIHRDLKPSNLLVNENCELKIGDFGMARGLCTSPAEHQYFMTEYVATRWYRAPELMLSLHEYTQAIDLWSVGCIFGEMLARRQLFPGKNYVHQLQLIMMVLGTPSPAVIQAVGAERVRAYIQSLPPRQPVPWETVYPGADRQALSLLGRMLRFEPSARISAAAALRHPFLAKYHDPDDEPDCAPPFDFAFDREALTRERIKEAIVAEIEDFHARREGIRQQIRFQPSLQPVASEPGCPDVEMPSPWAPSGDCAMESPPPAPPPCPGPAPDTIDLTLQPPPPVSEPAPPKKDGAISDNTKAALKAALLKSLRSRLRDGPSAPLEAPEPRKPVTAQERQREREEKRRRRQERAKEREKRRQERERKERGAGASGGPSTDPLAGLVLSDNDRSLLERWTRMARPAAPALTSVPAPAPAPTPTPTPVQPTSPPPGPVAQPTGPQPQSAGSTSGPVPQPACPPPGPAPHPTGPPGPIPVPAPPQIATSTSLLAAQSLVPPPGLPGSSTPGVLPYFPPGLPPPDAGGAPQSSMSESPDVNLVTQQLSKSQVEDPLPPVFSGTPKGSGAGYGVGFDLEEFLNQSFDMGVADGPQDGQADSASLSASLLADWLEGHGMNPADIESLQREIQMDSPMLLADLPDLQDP
# [5] = target: T3, Serine/threonine-protein kinase Nek2 (Homo sapiens, UniProt P51955)
# T3 sequence (P51955 whole entry): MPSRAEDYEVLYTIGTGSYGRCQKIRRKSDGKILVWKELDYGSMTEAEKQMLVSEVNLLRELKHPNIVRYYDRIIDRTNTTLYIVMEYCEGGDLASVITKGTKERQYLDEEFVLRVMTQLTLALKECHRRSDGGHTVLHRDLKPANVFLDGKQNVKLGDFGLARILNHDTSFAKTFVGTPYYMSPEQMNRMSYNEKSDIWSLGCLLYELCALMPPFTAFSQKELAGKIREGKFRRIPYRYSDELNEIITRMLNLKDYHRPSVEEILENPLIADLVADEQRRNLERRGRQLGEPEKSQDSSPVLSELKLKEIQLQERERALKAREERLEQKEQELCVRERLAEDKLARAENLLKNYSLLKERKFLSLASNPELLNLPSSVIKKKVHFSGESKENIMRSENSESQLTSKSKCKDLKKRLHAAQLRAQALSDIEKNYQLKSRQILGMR
# [6] = target: Citron Rho-interacting kinase (Homo sapiens, UniProt O14578)
# Chain of Citron Rho-interacting kinase (O14578 whole entry): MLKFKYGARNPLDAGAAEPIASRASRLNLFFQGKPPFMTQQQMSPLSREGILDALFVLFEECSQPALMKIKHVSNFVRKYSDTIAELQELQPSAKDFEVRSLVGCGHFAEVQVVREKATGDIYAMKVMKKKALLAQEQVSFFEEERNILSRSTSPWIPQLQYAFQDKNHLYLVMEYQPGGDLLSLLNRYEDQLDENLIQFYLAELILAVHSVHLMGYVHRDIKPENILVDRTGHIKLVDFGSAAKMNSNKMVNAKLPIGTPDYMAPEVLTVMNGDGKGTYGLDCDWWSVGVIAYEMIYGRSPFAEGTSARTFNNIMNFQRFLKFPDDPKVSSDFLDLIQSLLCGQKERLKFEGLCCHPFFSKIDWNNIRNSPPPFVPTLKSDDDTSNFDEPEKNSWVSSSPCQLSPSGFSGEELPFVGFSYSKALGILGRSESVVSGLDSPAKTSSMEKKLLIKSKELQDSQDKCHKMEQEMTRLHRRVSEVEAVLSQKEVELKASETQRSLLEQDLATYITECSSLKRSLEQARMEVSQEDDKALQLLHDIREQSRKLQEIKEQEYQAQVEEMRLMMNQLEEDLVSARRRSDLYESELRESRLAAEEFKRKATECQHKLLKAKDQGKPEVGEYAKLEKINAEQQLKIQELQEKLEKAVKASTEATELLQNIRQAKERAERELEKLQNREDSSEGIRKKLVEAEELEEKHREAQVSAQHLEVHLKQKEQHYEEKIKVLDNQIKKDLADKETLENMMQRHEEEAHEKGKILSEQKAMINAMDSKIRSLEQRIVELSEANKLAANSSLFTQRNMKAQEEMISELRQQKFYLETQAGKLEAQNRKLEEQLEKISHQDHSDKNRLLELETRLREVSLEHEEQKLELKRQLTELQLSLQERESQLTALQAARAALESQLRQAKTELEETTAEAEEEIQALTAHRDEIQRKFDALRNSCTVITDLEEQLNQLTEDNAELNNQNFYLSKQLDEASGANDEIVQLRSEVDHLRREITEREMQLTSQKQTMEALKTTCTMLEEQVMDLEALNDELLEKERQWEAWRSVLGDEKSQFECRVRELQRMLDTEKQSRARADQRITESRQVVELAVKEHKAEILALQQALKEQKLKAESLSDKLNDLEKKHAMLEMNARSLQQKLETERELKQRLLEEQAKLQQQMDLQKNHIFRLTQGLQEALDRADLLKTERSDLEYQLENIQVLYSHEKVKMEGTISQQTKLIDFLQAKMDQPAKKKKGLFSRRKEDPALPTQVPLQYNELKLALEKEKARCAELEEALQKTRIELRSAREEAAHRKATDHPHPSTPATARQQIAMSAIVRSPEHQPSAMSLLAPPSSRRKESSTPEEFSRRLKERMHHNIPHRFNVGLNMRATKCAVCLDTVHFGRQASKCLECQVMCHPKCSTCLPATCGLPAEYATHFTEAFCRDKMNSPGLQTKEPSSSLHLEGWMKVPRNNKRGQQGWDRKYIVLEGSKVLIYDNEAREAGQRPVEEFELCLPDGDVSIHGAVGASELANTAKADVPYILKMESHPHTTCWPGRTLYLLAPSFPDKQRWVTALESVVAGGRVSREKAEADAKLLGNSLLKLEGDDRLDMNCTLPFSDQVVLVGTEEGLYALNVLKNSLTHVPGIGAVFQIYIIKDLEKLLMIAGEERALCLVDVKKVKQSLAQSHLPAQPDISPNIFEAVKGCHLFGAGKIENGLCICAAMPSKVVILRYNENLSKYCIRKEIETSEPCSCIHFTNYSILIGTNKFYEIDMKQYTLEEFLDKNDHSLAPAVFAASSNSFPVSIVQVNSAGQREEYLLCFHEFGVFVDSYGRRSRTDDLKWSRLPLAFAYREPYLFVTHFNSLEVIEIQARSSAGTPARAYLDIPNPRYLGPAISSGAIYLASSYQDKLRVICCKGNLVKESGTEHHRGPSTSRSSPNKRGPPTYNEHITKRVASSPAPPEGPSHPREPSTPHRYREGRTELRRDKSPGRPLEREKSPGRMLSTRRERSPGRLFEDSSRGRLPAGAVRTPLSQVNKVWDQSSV
# [7] = target: Cyclin-dependent kinase 1 (Homo sapiens, UniProt P06493)
# Chain of Cyclin-dependent kinase 1 (P06493 whole entry): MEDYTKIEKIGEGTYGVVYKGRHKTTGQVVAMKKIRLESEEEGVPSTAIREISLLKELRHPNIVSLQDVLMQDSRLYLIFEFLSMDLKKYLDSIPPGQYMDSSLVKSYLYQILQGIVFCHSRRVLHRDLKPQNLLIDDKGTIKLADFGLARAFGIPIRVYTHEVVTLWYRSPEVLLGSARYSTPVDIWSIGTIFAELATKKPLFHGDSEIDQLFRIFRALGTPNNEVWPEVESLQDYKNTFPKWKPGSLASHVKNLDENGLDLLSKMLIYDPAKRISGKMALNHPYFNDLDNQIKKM
# [8] = target: Tyrosine-protein kinase Yes (Homo sapiens, UniProt P07947)
# Chain of Tyrosine-protein kinase Yes (P07947 whole entry): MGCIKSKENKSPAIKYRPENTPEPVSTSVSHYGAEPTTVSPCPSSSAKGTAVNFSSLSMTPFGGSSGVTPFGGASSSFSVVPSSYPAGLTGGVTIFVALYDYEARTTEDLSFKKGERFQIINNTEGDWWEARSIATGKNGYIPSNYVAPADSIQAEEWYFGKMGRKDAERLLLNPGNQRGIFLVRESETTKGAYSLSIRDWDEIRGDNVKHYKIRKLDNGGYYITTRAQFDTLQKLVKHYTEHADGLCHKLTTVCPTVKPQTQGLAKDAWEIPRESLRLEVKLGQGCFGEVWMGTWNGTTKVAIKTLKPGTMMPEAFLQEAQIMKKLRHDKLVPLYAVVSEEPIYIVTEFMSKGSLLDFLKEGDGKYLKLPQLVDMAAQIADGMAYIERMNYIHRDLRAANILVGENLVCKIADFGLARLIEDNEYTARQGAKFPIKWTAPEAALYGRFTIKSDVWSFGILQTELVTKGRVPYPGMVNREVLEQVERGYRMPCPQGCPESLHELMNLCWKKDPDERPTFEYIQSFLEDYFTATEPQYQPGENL
# [9] = target: T4, Signal recognition particle receptor subunit alpha (Homo sapiens, UniProt P08240)
# T4 sequence (P08240 whole entry): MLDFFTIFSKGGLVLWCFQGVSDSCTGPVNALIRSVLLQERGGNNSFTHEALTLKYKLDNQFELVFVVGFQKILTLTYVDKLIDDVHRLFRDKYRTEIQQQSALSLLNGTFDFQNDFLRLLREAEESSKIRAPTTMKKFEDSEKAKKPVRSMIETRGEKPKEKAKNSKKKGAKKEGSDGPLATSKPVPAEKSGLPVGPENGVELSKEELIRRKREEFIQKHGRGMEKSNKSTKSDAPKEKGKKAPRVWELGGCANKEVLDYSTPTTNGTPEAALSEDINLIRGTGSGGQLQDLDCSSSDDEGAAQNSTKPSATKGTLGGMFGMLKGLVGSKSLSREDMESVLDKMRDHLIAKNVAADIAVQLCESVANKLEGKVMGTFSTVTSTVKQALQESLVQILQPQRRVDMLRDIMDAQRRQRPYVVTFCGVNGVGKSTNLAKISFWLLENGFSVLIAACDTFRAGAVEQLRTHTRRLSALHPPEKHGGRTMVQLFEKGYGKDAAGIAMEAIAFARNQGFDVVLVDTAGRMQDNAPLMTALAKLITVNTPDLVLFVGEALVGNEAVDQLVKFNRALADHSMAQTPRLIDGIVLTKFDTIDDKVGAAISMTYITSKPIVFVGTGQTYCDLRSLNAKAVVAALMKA
# Also: in the data inactive means no Kd found up to 30 µM.
SMILES,Kd [1],Kd [2],Kd [3],Kd [4],Kd [5],Kd [6],Kd [7],Kd [8],Kd [9]
O=C(O)[C@]1(Cc2cccc(Nc3nccs3)n2)CC[C@@H](Oc2cccc(Cl)c2F)CC1 [MK-5108],> 30 µM (inactive),> 30 µM (inactive),> 30 µM (inactive),> 30 µM (inactive),> 30 µM (inactive),> 30 µM (inactive),> 30 µM (inactive),> 30 µM (inactive),> 30 µM (inactive)
C[C@@H]1CN(Cc2ccc(F)cc2)[C@@H](C)CN1C(=O)c1cc2c(C(=O)C(=O)N(C)C)cn(C)c2cc1Cl [TALMAPIMOD],> 30 µM (inactive),> 30 µM (inactive),> 30 µM (inactive),> 30 µM (inactive),> 30 µM (inactive),> 30 µM (inactive),> 30 µM (inactive),> 30 µM (inactive),> 30 µM (inactive)
O=C1NC(=O)/C(=C/c2ccc3nccc(-c4ccncc4)c3c2)S1 [GSK-1059615],> 30 µM (inactive),> 30 µM (inactive),> 30 µM (inactive),> 30 µM (inactive),> 30 µM (inactive),> 30 µM (inactive),> 30 µM (inactive),> 30 µM (inactive),> 30 µM (inactive)
Cn1cc(-c2ccc3nnc(C(F)(F)c4ccc5ncccc5c4)n3n2)cn1 [JNJ-38877605],> 30 µM (inactive),> 30 µM (inactive),> 30 µM (inactive),> 30 µM (inactive),> 30 µM (inactive),> 30 µM (inactive),> 30 µM (inactive),> 30 µM (inactive),> 30 µM (inactive)
CO[C@H]1C[C@@H]2CC[C@@H](C)[C@@](O)(O2)C(=O)C(=O)N2CCCC[C@H]2C(=O)O[C@H]([C@H](C)C[C@@H]2CC[C@@H](OCCO)[C@H](OC)C2)CC(=O)[C@H](C)/C=C(\C)[C@@H](O)[C@@H](OC)C(=O)[C@H](C)C[C@H](C)/C=C/C=C/C=C/1C [EVEROLIMUS],> 30 µM (inactive),> 30 µM (inactive),> 30 µM (inactive),> 30 µM (inactive),> 30 µM (inactive),> 30 µM (inactive),> 30 µM (inactive),> 30 µM (inactive),> 30 µM (inactive)
CC(C)Nc1cc(-c2c[nH]c(C(=O)N[C@H](CO)c3cccc(Cl)c3)c2)c(Cl)cn1 [ULIXERTINIB],> 30 µM (inactive),> 30 µM (inactive),> 30 µM (inactive),> 30 µM (inactive),> 30 µM (inactive),> 30 µM (inactive),> 30 µM (inactive),> 30 µM (inactive),> 30 µM (inactive)
COc1cc2nccc(Oc3ccc(NC(=O)NC4CC4)c(Cl)c3)c2cc1C(N)=O [LENVATINIB],> 30 µM (inactive),> 30 µM (inactive),> 30 µM (inactive),> 30 µM (inactive),> 30 µM (inactive),> 30 µM (inactive),> 30 µM (inactive),> 30 µM (inactive),> 30 µM (inactive)
Cc1ccc(-n2nc(C(C)(C)C)cc2NC(=O)NCc2cc(F)ccc2Oc2ccc3c(cnn3CCO)c2)cc1 [PEXMETINIB],> 30 µM (inactive),> 30 µM (inactive),> 30 µM (inactive),> 30 µM (inactive),> 30 µM (inactive),> 30 µM (inactive),> 30 µM (inactive),> 30 µM (inactive),> 30 µM (inactive)
CC(=O)Nc1cccc(-n2c(=O)n(C3CC3)c(=O)c3c(Nc4ccc(I)cc4F)n(C)c(=O)c(C)c32)c1 [TRAMETINIB],> 30 µM (inactive),> 30 µM (inactive),> 30 µM (inactive),> 30 µM (inactive),> 30 µM (inactive),> 30 µM (inactive),> 30 µM (inactive),> 30 µM (inactive),> 30 µM (inactive)
COC(=O)N[C@@H](C)CNc1nccc(-c2cn(C(C)C)nc2-c2cc(Cl)cc(NS(C)(=O)=O)c2F)n1 [ENCORAFENIB],> 30 µM (inactive),> 30 µM (inactive),> 30 µM (inactive),> 30 µM (inactive),> 30 µM (inactive),> 30 µM (inactive),> 30 µM (inactive),> 30 µM (inactive),> 30 µM (inactive)
O=C(Nc1ccc(-c2ccnc(Nc3ccc(N4CCOCC4)cc3)n2)cc1)C1CCCN1 (centres undefined) [XL-019],> 30 µM (inactive),> 30 µM (inactive),> 30 µM (inactive),> 30 µM (inactive),> 30 µM (inactive),3.62 µM (active),> 30 µM (inactive),> 30 µM (inactive),> 30 µM (inactive)
CCn1c(=O)c(-c2cc[nH]n2)cc2c(C)nc(N)nc21 [VOXTALISIB],> 30 µM (inactive),> 30 µM (inactive),> 30 µM (inactive),> 30 µM (inactive),> 30 µM (inactive),> 30 µM (inactive),> 30 µM (inactive),> 30 µM (inactive),> 30 µM (inactive)
Cc1ccc(NC(=O)c2ccc(CN3CC[C@H](N(C)C)C3)c(C(F)(F)F)c2)cc1Nc1nccc(-c2cncnc2)n1 [BAFETINIB],> 30 µM (inactive),> 30 µM (inactive),> 30 µM (inactive),> 30 µM (inactive),> 30 µM (inactive),> 30 µM (inactive),> 30 µM (inactive),> 30 µM (inactive),> 30 µM (inactive)
COc1ccc(-c2ccc3c(N4CCOC[C@@H]4C)nc(N4CCOC[C@@H]4C)nc3n2)cc1CO [AZD-8055],> 30 µM (inactive),> 30 µM (inactive),> 30 µM (inactive),> 30 µM (inactive),> 30 µM (inactive),> 30 µM (inactive),> 30 µM (inactive),> 30 µM (inactive),> 30 µM (inactive)
Cn1cc(-c2ccc(F)c(C(F)(F)F)c2)nc1C1CCN(c2ncnc3[nH]ncc23)CC1 [LY-2584702],> 30 µM (inactive),> 30 µM (inactive),> 30 µM (inactive),> 30 µM (inactive),> 30 µM (inactive),> 30 µM (inactive),> 30 µM (inactive),> 30 µM (inactive),> 30 µM (inactive)
CNC(=O)c1cc(Oc2ccc(NC(=O)Nc3ccc(Cl)c(C(F)(F)F)c3)c(F)c2)ccn1 [REGORAFENIB],> 30 µM (inactive),> 30 µM (inactive),> 30 µM (inactive),> 30 µM (inactive),> 30 µM (inactive),> 30 µM (inactive),> 30 µM (inactive),> 30 µM (inactive),> 30 µM (inactive)
